Laboratory results published in patent US8217039B2, “Aprepitant polymorph mixtures” (Dr. Reddy's Laboratories Ltd., priority 2006, dated 2012).
Converted amounts (≈) assume the structure as drawn.

Key:
[1] = Stability studies of 50:50 intimate mixture under stress conditions (Form I to Form II ratio by XRPD); assay type: physicochemical; details: milling, micronization, or drying at about 90° C. for prolonged periods
Procedure: Experimental conditions for performing the XRPD analysis for quantification were as follows: Process the diffraction peak for Form II≈21.15° (2θ) with constant smooth factor of 0.07 to check the detection of Form II and for the quantification of Form II the area of Form II peak and reference peak of Form I were taken. The Form I and Form II areas of two preparations of the test sample were noted. Then average the Form I and Form II areas. The percentage of Form II in Form I is calculated by the following formula: % of Form II=[(S2/S1)÷K=(S2/S1)]×100 • S1=Area of peak corresponding to Form I • S2=Area of peak corresponding to Form II K=Response constant for Form II relative to Form I. The areas of the peaks associated with Form I and Form II (characteristic peaks) were measured using Bruker X-ray diffraction evaluation software. From these areas, the response constant for Form II relative to Form I was determined. The value for the K factor was 0.32. A 50:50 weight ratio intimate mixture of aprepitant Form I and Form II prepared using the process of Example 12 was subjected to different conditions to determine the stability of the mixture under stress conditions.

[2] = cited from earlier work
[3] = 2:1 v/v methanol/water mixture at 0° C.; cited from earlier work

| Compound | conversion to Form I upon stress conditions [1] | thermodynamic stability compared with other crystalline forms ([2]; compared with Form II) | hygroscopicity ([2]; compared with other crystalline forms) | solubility [3] | numeric ratio of solubilities (Form II vs Form I) [3] |
| --- | --- | --- | --- | --- | --- |
| C[C@@H](O[C@H]1OCCN(Cc2n[nH]c(=O)[nH]2)[C@H]1c1ccc(F)cc1)c1cc(C(F)(F)F)cc(C(F)(F)F)c1 [5-[[(2R,3S)-2-[(1R)-1-[3,5-bis(trifluoromethyl)phenyl]ethoxy]-3-(4-fluorophenyl)-4-morpholinyl]methyl]-1,2-dihydro-3H-1,2,4-triazol-3-one] | does not convert to the more stable Form I | – | – | – | – |
| C[C@@H](O[C@H]1OCCN(Cc2n[nH]c(=O)[nH]2)[C@H]1c1ccc(F)cc1)c1cc(C(F)(F)F)cc(C(F)(F)F)c1 [Form I, 5-[[(2R,3S)-2-[(1R)-1-[3,5-bis(trifluoromethyl)phenyl]ethoxy]-3-(4-fluorophenyl)-4-morpholinyl]methyl]-1,2-dihydro-3H-1,2,4-triazol-3-one] | – | superior thermodynamic stability | non-hygroscopic | 900 ± 100 µg/mL (≈ 1680 µM) | – |
| C[C@@H](O[C@H]1OCCN(Cc2n[nH]c(=O)[nH]2)[C@H]1c1ccc(F)cc1)c1cc(C(F)(F)F)cc(C(F)(F)F)c1 [Form II, 5-[[(2R,3S)-2-[(1R)-1-[3,5-bis(trifluoromethyl)phenyl]ethoxy]-3-(4-fluorophenyl)-4-morpholinyl]methyl]-1,2-dihydro-3H-1,2,4-triazol-3-one] | – | – | – | 1300 ± 200 µg/mL (≈ 2430 µM) | 1.4 |
